Like-named read-outs stand apart in the source and are kept apart here.
Columns and labels:
Format in all cases: biochemical
LpxC [1] = target: T1, LpxC (Helicobacter pylori, UniProt O25692); test: percent inhibition of purified LpxC ortholog at […]; settings: read-out: 1-68A
T1 sequence (O25692 1-295): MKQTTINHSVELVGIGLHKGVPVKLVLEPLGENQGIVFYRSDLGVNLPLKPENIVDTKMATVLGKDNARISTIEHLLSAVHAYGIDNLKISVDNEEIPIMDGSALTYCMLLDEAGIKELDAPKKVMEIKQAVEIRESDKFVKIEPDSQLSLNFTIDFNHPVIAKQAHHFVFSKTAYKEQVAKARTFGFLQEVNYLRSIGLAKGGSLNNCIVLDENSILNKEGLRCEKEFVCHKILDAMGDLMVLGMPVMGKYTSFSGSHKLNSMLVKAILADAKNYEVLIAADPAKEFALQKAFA

[2] = target: T2, UDP-3-O-(R-3-hydroxyacyl)-N-acetylglucosamine deacetylase LpxC (Escherichia coli, UniProt P0A725); test: percent inhibition of purified LpxC at […]; settings: read-out: 1-68Aa
T2 sequence (P0A725 1-305): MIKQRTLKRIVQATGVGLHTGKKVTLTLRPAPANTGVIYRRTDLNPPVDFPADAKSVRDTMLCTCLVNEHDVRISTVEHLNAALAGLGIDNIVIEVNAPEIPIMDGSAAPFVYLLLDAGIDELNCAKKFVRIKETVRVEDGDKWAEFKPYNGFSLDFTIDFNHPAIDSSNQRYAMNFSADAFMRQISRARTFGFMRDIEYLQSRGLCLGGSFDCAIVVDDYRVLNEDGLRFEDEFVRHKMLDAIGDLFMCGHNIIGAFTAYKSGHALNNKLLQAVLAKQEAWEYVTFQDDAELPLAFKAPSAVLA

LpxC [3] = target: T3, LpxC (Rhizobium johnstonii, UniProt Q1ME43); test: percent inhibition of purified LpxC ortholog at […]; settings: read-out: 1-68Aa
T3 sequence (Q1ME43 1-318): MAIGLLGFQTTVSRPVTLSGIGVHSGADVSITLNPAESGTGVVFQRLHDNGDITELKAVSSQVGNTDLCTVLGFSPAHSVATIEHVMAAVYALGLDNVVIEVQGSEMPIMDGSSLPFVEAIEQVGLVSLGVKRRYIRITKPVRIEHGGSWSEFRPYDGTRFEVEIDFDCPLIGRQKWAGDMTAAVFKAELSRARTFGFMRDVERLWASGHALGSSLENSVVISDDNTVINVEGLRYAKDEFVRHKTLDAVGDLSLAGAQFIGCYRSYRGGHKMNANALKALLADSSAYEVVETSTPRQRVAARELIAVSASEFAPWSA

LpxC [4] = target: T1, LpxC; test: percent inhibition of purified LpxC ortholog at […]; settings: read-out: 1-68Aa

inhibition at 50 µM (LpxC [1]) [%] | inhibition at 50 µM [2] [%] | inhibition at 50 µM (LpxC [3]) [%] | inhibition at 50 µM (LpxC [4]) [%] | Structure (SMILES)
21 | – | – | – | O=c1ccn([C@@H]2O[C@H](CON=Cc3ccc(O)c(O)c3O)[C@@H](O)[C@H]2O)c(=O)[nH]1 [1-68A]
– | 60 | 49 | 41 | O=c1ccn([C@@H]2O[C@H](CON=Cc3ccc(O)c(O)c3)[C@@H](O)[C@H]2O)c(=O)[nH]1 [1-68Aa, 3,4-Dihydroxy-benzaldehyde O-[5-(2,4-dioxo-3,4-dihydro-2H-pyrimidin-1-yl)-3,4-dihydroxy-tetrahydro-furan-2-ylmethyl]-oxime]

— PMC2709817 (Biochemistry, 2009)
